According to ChEMBL document CHEMBL4033684, “Development of nonsteroidal glucocorticoid receptor modulators based on N-benzyl-N-(4-phenoxyphenyl)benzenesulfonamide scaffold” (Bioorg Med Chem, 2017):
The source made the active and inactive calls. No cut-off for these calls is given here.

Experiments:
Assay type in all cases: cell-based
[1] = molecular target: T1, Glucocorticoid receptor (Homo sapiens) (UniProt P04150); experiment: Transrepression of human GRalpha expressed in HEK293 cells co-expressing pGL4.32 assessed as inhibition of TNFalpha-stimulated NF-kB activity at 30 uM preincubated for 4 hrs followed by TNFalpha addition measured after 3 hrs by luciferase reporter gene assay relative to control
T1 sequence (whole entry): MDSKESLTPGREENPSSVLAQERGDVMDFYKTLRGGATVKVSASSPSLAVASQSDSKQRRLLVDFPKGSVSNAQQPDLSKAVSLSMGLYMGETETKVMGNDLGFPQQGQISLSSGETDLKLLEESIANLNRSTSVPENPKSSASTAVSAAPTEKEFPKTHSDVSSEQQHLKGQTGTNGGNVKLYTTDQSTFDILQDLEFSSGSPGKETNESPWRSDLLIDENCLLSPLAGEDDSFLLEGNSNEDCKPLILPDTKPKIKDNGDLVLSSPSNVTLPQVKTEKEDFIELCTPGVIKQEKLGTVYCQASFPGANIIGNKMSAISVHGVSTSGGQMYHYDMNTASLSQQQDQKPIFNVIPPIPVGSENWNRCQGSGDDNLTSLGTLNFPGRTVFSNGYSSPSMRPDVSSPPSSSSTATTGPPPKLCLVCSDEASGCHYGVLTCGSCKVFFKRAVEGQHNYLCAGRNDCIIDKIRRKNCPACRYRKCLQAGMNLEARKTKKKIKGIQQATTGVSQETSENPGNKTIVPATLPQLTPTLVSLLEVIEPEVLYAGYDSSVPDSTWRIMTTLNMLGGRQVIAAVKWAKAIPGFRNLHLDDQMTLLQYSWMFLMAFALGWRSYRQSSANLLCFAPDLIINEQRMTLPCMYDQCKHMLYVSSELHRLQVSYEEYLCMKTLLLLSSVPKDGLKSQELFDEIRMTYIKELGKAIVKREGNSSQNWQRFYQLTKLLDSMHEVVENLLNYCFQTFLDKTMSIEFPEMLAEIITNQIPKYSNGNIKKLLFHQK

Progesterone receptor = molecular target: T2, Progesterone receptor (Homo sapiens, UniProt P06401); experiment: Antagonist activity at PR in human T47D cells assessed as inhibition of progesterone-induced response after 24 hrs by alkaline phosphatase assay
T2 sequence (P06401 whole entry): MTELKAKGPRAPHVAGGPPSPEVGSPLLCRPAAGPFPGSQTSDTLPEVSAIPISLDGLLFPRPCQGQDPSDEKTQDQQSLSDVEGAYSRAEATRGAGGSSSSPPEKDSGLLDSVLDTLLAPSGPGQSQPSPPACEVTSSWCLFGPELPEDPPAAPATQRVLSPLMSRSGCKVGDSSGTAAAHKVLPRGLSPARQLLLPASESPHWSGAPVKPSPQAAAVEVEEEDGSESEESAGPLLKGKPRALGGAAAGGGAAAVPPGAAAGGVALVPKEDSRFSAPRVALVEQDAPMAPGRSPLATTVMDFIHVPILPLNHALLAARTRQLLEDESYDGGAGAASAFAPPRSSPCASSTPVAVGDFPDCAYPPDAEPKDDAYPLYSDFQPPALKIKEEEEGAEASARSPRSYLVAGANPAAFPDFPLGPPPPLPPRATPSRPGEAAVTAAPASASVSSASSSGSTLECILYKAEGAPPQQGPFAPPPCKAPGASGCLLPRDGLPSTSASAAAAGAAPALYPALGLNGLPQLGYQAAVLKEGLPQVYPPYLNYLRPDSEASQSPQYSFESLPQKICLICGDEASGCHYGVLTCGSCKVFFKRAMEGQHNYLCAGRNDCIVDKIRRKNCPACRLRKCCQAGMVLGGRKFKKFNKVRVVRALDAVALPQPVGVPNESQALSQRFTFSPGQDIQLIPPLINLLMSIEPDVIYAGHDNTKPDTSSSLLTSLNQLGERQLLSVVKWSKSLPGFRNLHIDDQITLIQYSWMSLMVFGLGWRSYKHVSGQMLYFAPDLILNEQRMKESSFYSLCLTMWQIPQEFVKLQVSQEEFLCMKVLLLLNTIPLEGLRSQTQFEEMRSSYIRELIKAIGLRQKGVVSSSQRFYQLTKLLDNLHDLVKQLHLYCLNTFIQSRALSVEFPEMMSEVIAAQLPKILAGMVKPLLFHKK

Glucocorticoid receptor [2] = molecular target: T3, Glucocorticoid receptor (Homo sapiens, UniProt P04150); experiment: Transactivation of human GRalpha expressed in HEK293 cells after 24 hrs by luciferase reporter gene assay; details: hek293, 24 h
T3 sequence (P04150 whole entry): T1 sequence (whole entry)

Glucocorticoid receptor [3] = molecular target: T3, Glucocorticoid receptor; experiment: Antagonist activity at human GRalpha expressed in HEK293 cells assessed as inhibition of dexamethasone-induced response after 24 hrs by luciferase reporter gene assay
[4] = molecular target: T4, Androgen receptor (Homo sapiens) (UniProt P10275); experiment: Antagonist activity at human AR expressed in HEK293 cells at 30 uM after 24 hrs by luciferase reporter gene assay
T4 sequence (whole entry): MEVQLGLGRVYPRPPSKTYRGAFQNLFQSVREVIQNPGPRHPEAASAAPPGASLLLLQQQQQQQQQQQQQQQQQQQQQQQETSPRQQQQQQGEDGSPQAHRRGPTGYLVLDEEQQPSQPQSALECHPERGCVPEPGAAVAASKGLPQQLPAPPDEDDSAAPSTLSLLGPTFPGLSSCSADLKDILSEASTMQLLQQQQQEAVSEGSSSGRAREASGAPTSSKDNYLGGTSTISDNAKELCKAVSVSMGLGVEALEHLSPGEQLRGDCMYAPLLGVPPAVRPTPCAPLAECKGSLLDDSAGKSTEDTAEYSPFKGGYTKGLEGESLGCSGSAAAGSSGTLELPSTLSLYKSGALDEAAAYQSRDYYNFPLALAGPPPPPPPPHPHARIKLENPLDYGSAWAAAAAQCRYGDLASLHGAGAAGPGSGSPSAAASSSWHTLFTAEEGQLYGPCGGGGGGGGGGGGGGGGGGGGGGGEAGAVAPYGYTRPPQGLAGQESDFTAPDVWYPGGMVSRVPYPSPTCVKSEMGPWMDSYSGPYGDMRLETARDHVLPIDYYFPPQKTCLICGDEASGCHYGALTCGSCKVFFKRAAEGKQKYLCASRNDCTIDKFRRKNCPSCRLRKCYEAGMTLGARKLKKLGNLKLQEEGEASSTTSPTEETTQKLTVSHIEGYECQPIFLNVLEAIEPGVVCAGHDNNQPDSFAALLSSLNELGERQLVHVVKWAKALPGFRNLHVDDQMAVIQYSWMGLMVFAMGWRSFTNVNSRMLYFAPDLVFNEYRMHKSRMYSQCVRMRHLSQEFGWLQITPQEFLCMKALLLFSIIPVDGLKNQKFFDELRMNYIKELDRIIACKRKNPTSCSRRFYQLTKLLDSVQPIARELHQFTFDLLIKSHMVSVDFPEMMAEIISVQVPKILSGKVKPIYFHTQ

[5] = molecular target: T5, Estrogen receptor (Homo sapiens) (UniProt P03372); experiment: Antagonist activity at human GAL4-fused ERalpha LBD expressed in HEK293 cells at 30 uM after 24 hrs by luciferase reporter gene assay
T5 sequence (whole entry): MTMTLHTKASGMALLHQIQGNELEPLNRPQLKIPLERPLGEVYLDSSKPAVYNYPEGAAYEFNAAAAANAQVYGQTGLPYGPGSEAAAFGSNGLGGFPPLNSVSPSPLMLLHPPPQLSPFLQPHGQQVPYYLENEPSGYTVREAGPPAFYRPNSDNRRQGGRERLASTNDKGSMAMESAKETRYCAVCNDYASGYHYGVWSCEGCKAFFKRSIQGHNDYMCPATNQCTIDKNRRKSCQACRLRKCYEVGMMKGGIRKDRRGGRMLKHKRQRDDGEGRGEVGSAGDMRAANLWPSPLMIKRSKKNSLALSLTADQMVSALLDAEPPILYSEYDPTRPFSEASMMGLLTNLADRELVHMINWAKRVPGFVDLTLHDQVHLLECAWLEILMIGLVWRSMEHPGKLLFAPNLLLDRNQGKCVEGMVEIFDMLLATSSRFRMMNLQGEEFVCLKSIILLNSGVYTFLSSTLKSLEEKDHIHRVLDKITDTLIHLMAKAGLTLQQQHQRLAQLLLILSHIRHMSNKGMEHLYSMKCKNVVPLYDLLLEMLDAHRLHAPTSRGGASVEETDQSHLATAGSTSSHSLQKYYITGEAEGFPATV

[6] = molecular target: Estrogen receptor beta (Homo sapiens) (UniProt Q92731); experiment: Antagonist activity at human GAL4-fused ERbeta LBD expressed in HEK293 cells at 30 uM after 24 hrs by luciferase reporter gene assay
Sequence of Estrogen receptor beta (Homo sapiens) (Q92731 whole entry, the tested form may be a part): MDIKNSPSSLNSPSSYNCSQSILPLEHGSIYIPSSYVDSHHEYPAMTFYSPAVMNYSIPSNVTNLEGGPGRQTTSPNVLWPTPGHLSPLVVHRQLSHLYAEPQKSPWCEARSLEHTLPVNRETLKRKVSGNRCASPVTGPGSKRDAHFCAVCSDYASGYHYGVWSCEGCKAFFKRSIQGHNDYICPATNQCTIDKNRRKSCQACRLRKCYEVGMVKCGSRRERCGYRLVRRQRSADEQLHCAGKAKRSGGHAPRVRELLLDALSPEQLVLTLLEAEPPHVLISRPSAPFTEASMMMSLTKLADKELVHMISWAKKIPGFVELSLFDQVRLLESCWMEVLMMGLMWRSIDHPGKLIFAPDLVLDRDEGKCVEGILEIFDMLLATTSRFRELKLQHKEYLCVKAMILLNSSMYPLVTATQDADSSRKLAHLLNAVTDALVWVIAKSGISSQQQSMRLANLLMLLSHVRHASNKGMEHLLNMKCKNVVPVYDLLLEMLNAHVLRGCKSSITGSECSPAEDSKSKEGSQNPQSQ

inhibition [1]: inactive
IC50 (Progesterone receptor): 8 µM
Activity (Glucocorticoid receptor [2]): Not Active
IC50 (Glucocorticoid receptor [3]): 1.43 µM
inhibition [4]: inactive
inhibition [5]: inactive
inhibition [6]: inactive
Compound: N#Cc1ccc(S(=O)(=O)N(Cc2ccccc2)c2ccc(Oc3ccccc3)cc2)cc1
